Results on five molecules are retold here after US6506760B1, “Substituted hydrazinyl heteroaromatic inhibitors of thrombin” (Corvas International, Inc., priority 2000, dated 2003).

In general, IC50 refers to the midpoint of a concentration-inhibition curve.

Type in all cases: biochemical
Assay [1] addresses T1, bovine pancreatic trypsin (Bos taurus, UniProt P00760).
T1 construct: bovine pancreatic trypsin was obtained from Worthington Biochemical Corp; purchased Worthington Biochemical Corp. TRL3; host or cells: bovine pancreas
T1 sequence (P00760 24-246): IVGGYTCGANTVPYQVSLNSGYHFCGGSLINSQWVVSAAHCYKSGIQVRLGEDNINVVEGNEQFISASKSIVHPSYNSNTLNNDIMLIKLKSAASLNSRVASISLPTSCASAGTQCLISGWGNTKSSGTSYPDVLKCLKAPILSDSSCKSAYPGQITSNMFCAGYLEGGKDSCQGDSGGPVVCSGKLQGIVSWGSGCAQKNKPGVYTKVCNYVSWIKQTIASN
Nature of the assay: Trypsin chromogenic assay, IC50. The note with it: 30 min incubation. On the procedure:
(§1) The ability of compounds of the present invention to act as a selective inhibitor of thrombin activity was assessed by determining the concentration of test-compound which inhibited the activity of this enzyme by 50%, (IC50), and comparing this value to that determined for all or some of the following related serine proteases: recombinant tissue plasminogen activator (rt-PA), plasmin, activated protein C, chymotrypsin, factor Xa and trypsin.
(§2) The buffer used for all assays was HBSA (10 mM HEPES, pH 7.5, 150 mM sodium chloride, 0.1% bovine serum albumin).
(§3) The assay for IC50 determinations was conducted by combining in appropriate wells of a Corning microtiter plate, 50 microliters of HBSA, 50 microliters of the test compound at a specified concentration (covering a broad concentration range) diluted in HBSA (or HBSA alone for V0 (uninhibited velocity) measurement), and 50 microliters of the enzyme diluted in HBSA. Following a 30 minute incubation at ambient temperature, 50 microliters of the substrate at the concentrations specified below were added to the wells, yielding a final total volume of 200 microliters. The initial velocity of chromogenic substrate hydrolysis was measured by the change in absorbance at 405 nm using a Thermo Max® Kinetic Microplate Reader over a 5 minute period in which less than 5% of the added substrate was utilized. The concentration of added inhibitor which caused a 50% decrease in the initial rate of hydrolysis was defined as the IC50 value.
Trypsin catalytic activity was determined using the chromogenic substrate, S-2222 (benzoyl-L-isoleucine-L-glutamic acid-[gamma-methyl ester]-L-arginine-p-nitroanilide), which was obtained from DiaPharma Group. […] Purified (3×-crystallized; TRL3) bovine pancreatic trypsin was obtained from Worthington Biochemical Corp. The enzyme was reconstituted in deionized water and diluted into HBSA prior to assay in which the final concentration was 0.5 nM.

The target in the next assay is human plasmin (Homo sapiens, UniProt P00747). Nature of the assay: Plasmin chromogenic assay, IC50. The note with it: 30 min incubation. As for the experimental part: as §1, §2, §3
Chain of human plasmin (P00747 581-810 limits assumed): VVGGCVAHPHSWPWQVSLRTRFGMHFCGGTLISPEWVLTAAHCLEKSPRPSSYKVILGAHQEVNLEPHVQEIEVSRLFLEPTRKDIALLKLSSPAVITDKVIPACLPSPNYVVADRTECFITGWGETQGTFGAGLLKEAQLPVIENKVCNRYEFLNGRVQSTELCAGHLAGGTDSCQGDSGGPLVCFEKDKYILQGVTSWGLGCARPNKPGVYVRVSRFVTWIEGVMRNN
Chain of human plasmin (P00747 97-580 partner limits assumed): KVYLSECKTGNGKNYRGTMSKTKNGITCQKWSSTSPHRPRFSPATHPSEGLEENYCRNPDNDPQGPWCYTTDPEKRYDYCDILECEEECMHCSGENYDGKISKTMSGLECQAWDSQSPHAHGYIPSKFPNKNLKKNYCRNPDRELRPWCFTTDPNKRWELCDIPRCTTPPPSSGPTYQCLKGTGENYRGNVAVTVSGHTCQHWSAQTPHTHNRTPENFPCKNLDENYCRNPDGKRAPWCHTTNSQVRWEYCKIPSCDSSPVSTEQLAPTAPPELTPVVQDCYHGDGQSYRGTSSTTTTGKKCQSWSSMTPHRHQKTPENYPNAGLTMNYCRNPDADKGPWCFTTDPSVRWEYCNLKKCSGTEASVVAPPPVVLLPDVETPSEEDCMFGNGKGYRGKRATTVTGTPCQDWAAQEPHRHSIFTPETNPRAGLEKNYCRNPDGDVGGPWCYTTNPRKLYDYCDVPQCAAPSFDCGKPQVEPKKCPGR
Plasmin catalytic activity was determined using the chromogenic substrate, S-2366 [L-pyroglutamyl-L-prolyl-L-arginine-p-nitroaniline hydrochloride], which was obtained from DiaPharma group. The substrate was made up in deionized water followed by dilution in HBSA prior to the assay in which the final concentration was 300 micromolar (about 2.5-times Km). Purified human plasmin was obtained from Enzyme Research Laboratories, Inc. The enzyme was diluted into HBSA prior to assay in which the final concentration was 1.0 nM.

In another assay the target is human α-thrombin (Homo sapiens, UniProt P00734). Briefly: Thrombin (fIIa) chromogenic assay, IC50.
Another assay addresses T2, Factor Xa (Homo sapiens, UniProt P00742).
T2 construct: purchased Enzyme Research Laboratories, Inc. (South Bend, Ind.)
Nature of the assay: Factor Xa chromogenic assay, IC50. The settings on record: 30 min incubation; read-out: fxa IC50 (30 min). As for the experimental part:
as §1, §2, §3
Factor Xa catalytic activity was determined using the chromogenic substrate S-2765 (N-benzyloxycarbonyl-D-arginine-L-glycine-L-arginine-p-n itroaniline ), obtained from DiaPharma Group (Franklin, Ohio). All substrates were reconstituted in deionized water prior to use. […] Purified human Factor X was obtained from Enzyme Research Laboratories, Inc. (South Bend, Ind.) and Factor Xa (FXa) was activated and prepared from it as described [Bock, P. E., Craig, P. A., Olson, S. T., and Singh, P. Arch, Biochem. Biophys, 273:375-388 (1989)]. The enzyme was diluted into HBSA prior to assay in which the final concentration was 0.25 nM.

Where [2] appears, read: 0 min incubation of enzyme with inhibitor, read-out: fIIa IC50 (0 min).
[3] abbreviates: 30 min incubation of enzyme with inhibitor, read-out: fIIa IC50 (30 min).

Read-outs that look alike come from different tables or passages of the source.

T2 sequence (P00742 235-488 limits assumed): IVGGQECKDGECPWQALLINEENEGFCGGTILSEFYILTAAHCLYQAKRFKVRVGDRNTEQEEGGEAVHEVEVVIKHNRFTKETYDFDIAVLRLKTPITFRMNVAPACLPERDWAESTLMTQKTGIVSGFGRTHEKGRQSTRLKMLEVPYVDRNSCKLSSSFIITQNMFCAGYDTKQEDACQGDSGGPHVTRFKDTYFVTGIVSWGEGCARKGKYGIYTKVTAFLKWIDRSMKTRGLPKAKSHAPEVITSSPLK
T2 sequence (P00742 41-179 partner limits assumed): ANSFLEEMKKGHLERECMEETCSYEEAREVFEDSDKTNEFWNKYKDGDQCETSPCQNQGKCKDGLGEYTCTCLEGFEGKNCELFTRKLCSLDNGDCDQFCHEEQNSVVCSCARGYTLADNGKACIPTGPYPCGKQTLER

`Cc1nc(N)ccc1CNC(=O)Cn1c(C)cnc(NNS(=O)(=O)c2ccccc2F)c1=O` [Example 54, 1-[5-(2-Amino-6-methylpyridyl)methylcarboxamidomethyl]-3-[2-(2-fluorobenzenesulfonyl)hydrazino]-6-methyl pyrazinone, Hydrotrifluoroacetate]: the IC50 is at least 100 µM in assay [1]; at least 100 µM on human plasmin; at most 0.1 µM on human α-thrombin (setting [2]); at most 0.1 µM on human α-thrombin (setting [3]); at least 100 µM on Factor Xa.

Take “1-[5-(2-Amino-6-methylpyridyl)methylcarboxamidomethyl]-3-[2-(2-chlorobenzenesulfonyl)hydrazino]-6-methylpyrazinone, Hydrotrifluoroacetate [Example 53]”: the IC50 in assay [1] was 2.5 to 100 µM; against human plasmin it was at least 100 µM; on human α-thrombin (setting [2]), at most 0.1 µM; on human α-thrombin (setting [3]), at most 0.1 µM; on Factor Xa, 2.5 to 100 µM.

As for `Cc1nc(N)ccc1CNC(=O)Cn1c(C)cnc(NNC(=O)NCc2ccc(Cl)cc2)c1=O` [Example 37, 1-[5-(2-Amino-6-methylpyridyl)methylcarboxamidomethyl]-3-[2-(4-chlorobenzylcarbamyl)hydrazino]-6-methylpyrazinone, Hydrotrifluoroacetate], the IC50 in assay [1] is at least 100 µM; at human plasmin it was at least 100 µM; on human α-thrombin (setting [2]), at most 0.1 µM; on human α-thrombin (setting [3]), at most 0.1 µM; on Factor Xa it was at least 100 µM.

`COc1ccc(S(=O)(=O)NNc2ncc(C)n(CC(=O)NCc3ccc(N)nc3C)c2=O)cc1` [Example 57]: the IC50 in assay [1] was at least 100 µM; at human plasmin it was at least 100 µM; at human α-thrombin (setting [2]), at most 0.1 µM; on human α-thrombin (setting [3]), at most 0.1 µM; at Factor Xa, 2.5 to 100 µM.

For `Cc1nc(N)ccc1CNC(=O)Cn1c(C)cnc(NN(CCc2ccccc2)CCc2ccccc2)c1=O` [Example 60, 1-[5-(2-Amino-6-methylpyridyl)methylcarboxamidomethyl]-6-methyl-3-[2,2-di(2-phenylethyl)hydrazino]pyrazinone, Hydrotrifluoroacetate], the IC50 was at least 100 µM in assay [1]; at least 100 µM on human plasmin; at most 0.1 µM on human α-thrombin (setting [2]); at most 0.1 µM at human α-thrombin (setting [3]); 2.5 to 100 µM on Factor Xa.
